Measurements from patent US20240100170A1, “CYCLIC-AMP RESPONSE ELEMENT BINDING PROTEIN (CBP) AND/OR ADENOVIRAL E1A BINDING PROTEIN OF 300 KDA (P300) DEGRADATION COMPOUNDS AND METHODS OF USE” (CULLGEN (SHANGHAI), INC., priority 2020, published 2024).

What was measured:
[1] = system: LNCaP prostate cancer cell; assay: LNCaP cell viability (CellTiter-Glo); assay type: cell-based; conditions: Homo sapiens, 72 h; LNCaP cell viability, 3 days, CellTiter-Glo; Table 4
Outline: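 LNCaP cells (5000/well, RPMI 1640 + 10% FBS, 37 °C) treated with compounds in 12-point 3-fold serial dilution for three days. Viability read by CellTiter-Glo luminescence, normalized to untreated cells; IC50 from least-squares nonlinear regression.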

P300 = P300 (Homo sapiens, UniProt Q09472); assay: percentage of inhibition (degradation) of p300 at 10 nM, Tables 2-4; assay type: cell-based; design: LNCaP or 22RV1 cells that express CBP/P300 proteins were treated with GNE-781 or the bivalent compounds; endogenous in cells; host or cells: LNCaP or 22RV1 (not given); conditions: p300, 10 nM; Table 4; read-out: Degradation (10 nM)
P300, sequence (Q09472 whole entry): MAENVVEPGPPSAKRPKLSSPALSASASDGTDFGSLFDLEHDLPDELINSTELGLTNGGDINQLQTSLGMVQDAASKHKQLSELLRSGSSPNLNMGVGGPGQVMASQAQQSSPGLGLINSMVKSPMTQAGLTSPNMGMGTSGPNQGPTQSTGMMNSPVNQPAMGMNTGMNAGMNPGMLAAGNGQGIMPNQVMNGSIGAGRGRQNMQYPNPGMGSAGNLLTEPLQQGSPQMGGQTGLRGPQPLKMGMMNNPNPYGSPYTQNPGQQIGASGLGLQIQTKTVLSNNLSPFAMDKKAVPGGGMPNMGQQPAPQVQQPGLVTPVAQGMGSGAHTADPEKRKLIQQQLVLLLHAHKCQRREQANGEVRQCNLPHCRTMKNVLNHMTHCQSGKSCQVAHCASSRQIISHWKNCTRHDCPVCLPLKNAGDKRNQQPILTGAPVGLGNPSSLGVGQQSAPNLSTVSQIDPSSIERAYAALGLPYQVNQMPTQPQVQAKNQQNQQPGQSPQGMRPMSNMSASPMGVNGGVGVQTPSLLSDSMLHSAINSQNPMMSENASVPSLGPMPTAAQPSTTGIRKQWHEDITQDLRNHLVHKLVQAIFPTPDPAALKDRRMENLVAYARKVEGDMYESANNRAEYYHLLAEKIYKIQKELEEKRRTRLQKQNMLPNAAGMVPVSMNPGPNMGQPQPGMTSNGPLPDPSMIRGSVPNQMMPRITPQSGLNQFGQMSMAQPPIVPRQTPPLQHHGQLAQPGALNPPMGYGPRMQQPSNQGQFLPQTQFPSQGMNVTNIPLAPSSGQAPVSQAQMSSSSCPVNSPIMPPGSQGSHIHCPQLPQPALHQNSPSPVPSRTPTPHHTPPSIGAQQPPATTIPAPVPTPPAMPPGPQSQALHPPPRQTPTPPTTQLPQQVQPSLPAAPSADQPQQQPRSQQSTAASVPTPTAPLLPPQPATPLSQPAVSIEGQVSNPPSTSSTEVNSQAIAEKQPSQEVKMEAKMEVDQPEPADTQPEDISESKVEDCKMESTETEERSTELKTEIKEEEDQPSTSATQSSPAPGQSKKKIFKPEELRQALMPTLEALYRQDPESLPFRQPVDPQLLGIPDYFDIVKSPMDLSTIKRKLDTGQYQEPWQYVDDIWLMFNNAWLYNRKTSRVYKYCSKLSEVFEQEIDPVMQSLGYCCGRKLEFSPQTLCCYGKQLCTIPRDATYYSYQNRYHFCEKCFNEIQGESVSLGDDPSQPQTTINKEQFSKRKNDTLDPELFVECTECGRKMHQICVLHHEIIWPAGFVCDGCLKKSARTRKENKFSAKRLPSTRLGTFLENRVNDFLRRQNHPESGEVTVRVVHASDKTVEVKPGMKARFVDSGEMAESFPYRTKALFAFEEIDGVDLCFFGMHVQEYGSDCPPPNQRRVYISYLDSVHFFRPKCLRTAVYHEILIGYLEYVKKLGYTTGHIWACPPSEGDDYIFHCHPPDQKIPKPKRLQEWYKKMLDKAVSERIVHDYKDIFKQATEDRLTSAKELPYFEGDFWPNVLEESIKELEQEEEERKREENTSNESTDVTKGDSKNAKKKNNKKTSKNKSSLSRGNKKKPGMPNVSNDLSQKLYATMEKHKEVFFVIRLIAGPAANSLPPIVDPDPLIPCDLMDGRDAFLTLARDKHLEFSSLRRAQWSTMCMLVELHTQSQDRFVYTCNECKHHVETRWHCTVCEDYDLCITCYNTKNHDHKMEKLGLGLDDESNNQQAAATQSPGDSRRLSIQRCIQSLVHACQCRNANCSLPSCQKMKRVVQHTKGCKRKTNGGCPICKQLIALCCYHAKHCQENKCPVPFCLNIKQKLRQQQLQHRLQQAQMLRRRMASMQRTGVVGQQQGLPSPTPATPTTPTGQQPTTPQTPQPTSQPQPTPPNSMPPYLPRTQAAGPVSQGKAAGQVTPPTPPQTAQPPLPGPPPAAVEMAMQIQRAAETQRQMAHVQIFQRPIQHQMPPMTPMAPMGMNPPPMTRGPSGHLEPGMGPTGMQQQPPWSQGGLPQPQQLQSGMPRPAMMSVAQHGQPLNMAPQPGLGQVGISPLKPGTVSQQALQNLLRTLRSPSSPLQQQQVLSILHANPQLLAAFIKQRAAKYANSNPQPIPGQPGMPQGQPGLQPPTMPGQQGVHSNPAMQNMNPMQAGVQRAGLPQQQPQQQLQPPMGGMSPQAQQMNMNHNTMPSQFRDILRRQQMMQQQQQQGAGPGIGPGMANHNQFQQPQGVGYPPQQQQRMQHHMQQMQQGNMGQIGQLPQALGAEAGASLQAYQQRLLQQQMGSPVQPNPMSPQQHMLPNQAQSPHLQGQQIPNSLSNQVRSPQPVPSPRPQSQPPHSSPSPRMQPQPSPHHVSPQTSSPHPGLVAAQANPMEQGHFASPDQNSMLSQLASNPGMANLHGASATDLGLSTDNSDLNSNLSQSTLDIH
Outline: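 Degradation was measured at 10 nM. Cells or tissue were lysed in RIPA with protease and phosphatase inhibitors for 30 min at 4 °C and cleared, and protein was quantified by BCA. Lysates were resolved by SDS-PAGE, detected by chemiluminescent immunoblot, and bands were quantified by densitometry.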

SMILES | IC50 [1] [nM] | inhibition at 0.01 µM (P300) [%]
CC(=O)N1CCc2c(c(N3CCCc4cc(-c5cnn(C)c5)c(C(F)F)cc43)nn2C2CCN(Cc3ccc(CNc4cccc5c4CN(C4CCC(=O)NC4=O)C5=O)cc3)CC2)C1 (stereo not drawn) [P-200] | 7.9 | 50 to 80
CC(=O)N1CCc2c(c(N3CCCc4cc(-c5cnn(C)c5)c(C(F)F)cc43)nn2C2CCN(Cc3ccc(COc4cccc5c4C(=O)N(C4CCC(=O)NC4=O)C5)cc3)CC2)C1 (stereo not drawn) [P-194, 3-(7-((4-((4-(5-acetyl-3-(7-(difluoromethyl)-6-(1-methyl-1H-pyrazol-4-yl)-3,4-dihydroquinolin-1(2H)-yl)-4,5,6,7-tetrahydro-1H-pyrazolo[4,3-c]pyridin-1-yl)piperidin-1-yl)methyl)benzyl)oxy)-1-oxoisoindolin-2-yl)piperidine-2,6-dione] | 4.9 | > 80
CC(=O)N1CCc2c(c(N3CCCc4cc(-c5cnn(C)c5)c(C(F)F)cc43)nn2C2CCN(C(=O)CCCN3CCC(CCc4cccc5c4n(C)c(=O)n5C4CCC(=O)NC4=O)CC3)CC2)C1 (stereo not drawn) [P-230, 3-(4-(2-(1-(4-(4-(5-Acetyl-3-(7-(difluoromethyl)-6-(1-methyl-1H-pyrazol-4-yl)-3,4-dihydroquinolin-1(2H)-yl)-4,5,6,7-tetrahydro-1H-pyrazolo[4,3-c]pyridin-1-yl)piperidin-1-yl)-4-oxobutyl)piperidin-4-yl)ethyl)-3-methyl-2-oxo-2,3-dihydro-1H-benzo[d]imidazol-1-yl)piperidine-2,6-dione] | 17.1 | > 80
CC(=O)N1CCc2c(c(N3CCCc4cc(-c5cnn(C)c5)c(C(F)F)cc43)nn2C2CCN(CCC3CCN(c4cccc5c4C(=O)N(C4CCC(=O)NC4=O)C5=O)CC3)CC2)C1 (stereo not drawn) [P-192, 4-(4-(2-(4-(5-acetyl-3-(7-(difluoromethyl)-6-(1-methyl-1H-pyrazol-4-yl)-3,4-dihydroquinolin-1(2H)-yl)-4,5,6,7-tetrahydro-1H-pyrazolo[4,3-c]pyridin-1-yl)piperidin-1-yl)ethyl)piperidin-1-yl)-2-(2,6-dioxopiperidin-3-yl)isoindoline-1,3-dione] | 10.2 | 50 to 80
CC(=O)N1CCc2c(c(N3CCCc4cc(-c5cnn(C)c5)c(C(F)F)cc43)nn2C2CCN(CCCC3CCN(c4cccc5c4C(=O)N(C4CCC(=O)NC4=O)C5=O)CC3)CC2)C1 (stereo not drawn) [P-249, 4-(4-(3-(4-(5-acetyl-3-(7-(difluoromethyl)-6-(1-methyl-1H-pyrazol-4-yl)-3,4-dihydroquinolin-1(2H)-yl)-4,5,6,7-tetrahydro-1H-pyrazolo[4,3-c]pyridin-1-yl)piperidin-1-yl)propyl)piperidin-1-yl)-2-(2,6-dioxopiperidin-3-yl)isoindoline-1,3-dione] | 0.1 | > 80
CC(=O)N1CCc2c(c(N3CCCc4cc(-c5cnn(C)c5)c(C(F)F)cc43)nn2C2CCN(CCCN3CCC(C#Cc4cccc5c4n(C)c(=O)n5C4CCC(=O)NC4=O)CC3)CC2)C1 (stereo not drawn) [P-250, 3-(4-((1-(3-(4-(5-acetyl-3-(7-(difluoromethyl)-6-(1-methyl-1H-pyrazol-4-yl)-3,4-dihydroquinolin-1(2H)-yl)-4,5,6,7-tetrahydro-1H-pyrazolo[4,3-c]pyridin-1-yl)piperidin-1-yl)propyl)piperidin-4-yl)ethynyl)-3-methyl-2-oxo-2,3-dihydro-1H-benzo[d]imidazol-1-yl)piperidine-2,6-dione] | 0.3 | > 80
CC(=O)N1CCc2c(c(N3CCCc4cc(-c5cnn(C)c5)c(C(F)F)cc43)nn2C2CCN(CCCN3CCC(C#Cc4ccc5c(c4)n(C)c(=O)n5C4CCC(=O)NC4=O)CC3)CC2)C1 (stereo not drawn) [P-243, 3-(5-((1-(3-(4-(5-acetyl-3-(7-(difluoromethyl)-6-(1-methyl-1H-pyrazol-4-yl)-3,4-dihydroquinolin-1(2H)-yl)-4,5,6,7-tetrahydro-1H-pyrazolo[4,3-c]pyridin-1-yl)piperidin-1-yl)propyl)piperidin-4-yl)ethynyl)-3-methyl-2-oxo-2,3-dihydro-1H-benzo[d]imidazol-1-yl)piperidine-2,6-dione] | 0.2 | > 80
CC(=O)N1CCc2c(c(N3CCCc4cc(-c5cnn(C)c5)c(C(F)F)cc43)nn2C2CCN(CCCN3CCC(CCc4ccc5c(c4)n(C)c(=O)n5C4CCC(=O)NC4=O)CC3)CC2)C1 (stereo not drawn) [P-244, 3-(5-(2-(1-(3-(4-(5-acetyl-3-(7-(difluoromethyl)-6-(1-methyl-1H-pyrazol-4-yl)-3,4-dihydroquinolin-1(2H)-yl)-4,5,6,7-tetrahydro-1H-pyrazolo[4,3-c]pyridin-1-yl)piperidin-1-yl)propyl)piperidin-4-yl)ethyl)-3-methyl-2-oxo-2,3-dihydro-1H-benzo[d]imidazol-1-yl)piperidine-2,6-dione] | 0.8 | > 80
CC(=O)N1CCc2c(c(N3CCCc4cc(-c5cnn(C)c5)c(C(F)F)cc43)nn2C2CCN(C(=O)CCN3CCC(C#Cc4ccc5c(c4)n(C)c(=O)n5C4CCC(=O)NC4=O)CC3)CC2)C1 (stereo not drawn) [P-212, 3-(5-((1-(3-(4-(5-acetyl-3-(7-(difluoromethyl)-6-(1-methyl-1H-pyrazol-4-yl)-3,4-dihydroquinolin-1(2H)-yl)-4,5,6,7-tetrahydro-1H-pyrazolo[4,3-c]pyridin-1-yl)piperidin-1-yl)-3-oxopropyl)piperidin-4-yl)ethynyl)-3-methyl-2-oxo-2,3-dihydro-1H-benzo[d]imidazol-1-yl)piperidine-2,6-dione] | 5.5 | > 80
CC(=O)N1CCc2c(c(N3CCCc4cc(-c5cnn(C)c5)c(C(F)F)cc43)nn2C2CCN(C(=O)CN3CCN(CC#Cc4ccc5c(c4)n(C)c(=O)n5C4CCC(=O)NC4=O)CC3)CC2)C1 (stereo not drawn) [P-219, 3-(5-(3-(4-(2-(4-(5-Acetyl-3-(7-(difluoromethyl)-6-(1-methyl-1H-pyrazol-4-yl)-3,4-dihydroquinolin-1(2H)-yl)-4,5,6,7-tetrahydro-1H-pyrazolo[4,3-c]pyridin-1-yl)piperidin-1-yl)-2-oxoethyl)piperazin-1-yl)prop-1-yn-1-yl)-3-methyl-2-oxo-2,3-dihydro-1H-benzo[d]imidazol-1-yl)piperidine-2,6-dione] | 64.7 | 20 to 50
CC(=O)N1CCc2c(c(N3CCCc4cc(-c5cnn(C)c5)c(C(F)F)cc43)nn2C2CCN(CCN3CCN(c4cccc5c4C(=O)N(C4CCC(=O)NC4=O)C5=O)CC3)CC2)C1 (stereo not drawn) [P-191, 4-(4-(2-(4-(5-acetyl-3-(7-(difluoromethyl)-6-(1-methyl-1H-pyrazol-4-yl)-3,4-dihydroquinolin-1(2H)-yl)-4,5,6,7-tetrahydro-1H-pyrazolo[4,3-c]pyridin-1-yl)piperidin-1-yl)ethyl)piperazin-1-yl)-2-(2,6-dioxopiperidin-3-yl)isoindoline-1,3-dione] | 179 | < 20
CC(=O)N1CCc2c(c(N3CCCc4cc(-c5cnn(C)c5)c(C(F)F)cc43)nn2C2CCN(CCCN3CCC(CNc4cccc5c4C(=O)N(C4CCC(=O)NC4=O)C5=O)CC3)CC2)C1 (stereo not drawn) [P-193, 4-(((1-(3-(4-(5-acetyl-3-(7-(difluoromethyl)-6-(1-methyl-1H-pyrazol-4-yl)-3,4-dihydroquinolin-1(2H)-yl)-4,5,6,7-tetrahydro-1H-pyrazolo[4,3-c]pyridin-1-yl)piperidin-1-yl)propyl)piperidin-4-yl)methyl)amino)-2-(2,6-dioxopiperidin-3-yl)isoindoline-1,3-dione] | 3.2 | > 80
CC(=O)N1CCc2c(c(N3CCCc4cc(-c5cnn(C)c5)c(C(F)F)cc43)nn2C2CCN(C(=O)CCN3CCN(CCCc4ccc5c(c4)n(C)c(=O)n5C4CCC(=O)NC4=O)CC3)CC2)C1 (stereo not drawn) [P-234, 3-(5-(3-(4-(3-(4-(5-acetyl-3-(7-(difluoromethyl)-6-(1-methyl-1H-pyrazol-4-yl)-3,4-dihydroquinolin-1(2H)-yl)-4,5,6,7-tetrahydro-1H-pyrazolo[4,3-c]pyridin-1-yl)piperidin-1-yl)-3-oxopropyl)piperazin-1-yl)propyl)-3-methyl-2-oxo-2,3-dihydro-1H-benzo[d]imidazol-1-yl)piperidine-2,6-dione] | 6.8 | > 80
CC(=O)N1CCc2c(c(N3CCCc4cc(-c5cnn(C)c5)c(C(F)F)cc43)nn2C2CCN(C(=O)CCCCCCCCC(=O)Nc3cccc(NC4CCC(=O)NC4=O)c3)CC2)C1 (stereo not drawn) [P-264, 10-(4-(5-Acetyl-3-(7-(difluoromethyl)-6-(1-methyl-1H-pyrazol-4-yl)-3,4-dihydroquinolin-1(2H)-yl)-4,5,6,7-tetrahydro-1H-pyrazolo[4,3-c]pyridin-1-yl)piperidin-1-yl)-N-(3-((2,6-dioxopiperidin-3-yl)amino)phenyl)-10-oxodecanamide] | 486 | < 20
CC(=O)N1CCc2c(c(N3CCCc4cc(-c5cnn(C)c5)c(C(F)F)cc43)nn2C2CCN(C(=O)CCN3CCC(CCc4ccc5c(c4)n(C)c(=O)n5C4CCC(=O)NC4=O)CC3)CC2)C1 (stereo not drawn) [P-221, 3-(5-(2-(1-(3-(4-(5-acetyl-3-(7-(difluoromethyl)-6-(1-methyl-1H-pyrazol-4-yl)-3,4-dihydroquinolin-1(2H)-yl)-4,5,6,7-tetrahydro-1H-pyrazolo[4,3-c]pyridin-1-yl)piperidin-1-yl)-3-oxopropyl)piperidin-4-yl)ethyl)-3-methyl-2-oxo-2,3-dihydro-1H-benzo[d]imidazol-1-yl)piperidine-2,6-dione] | 2.5 | > 80
